# Assay results published in patent US11192849B2, “Compounds, compositions, and methods for modulating ferroptosis and treating excitotoxic disorders” (THE TRUSTEES OF COLUMBIA UNIVERSITY IN THE CITY OF NEW YORK, priority 2013, dated 2021).
# Where two headings read alike, the source gives them in different places. Marks after values point to notes of the source that are not given here.
# Assays:
# NIH 3T3 cells = assay: FACS (7AAD / annexin V) of erastin-treated NIH 3T3 cells; assay type: cell-based, murine; conditions: 50 μM erastin, 1 μM compound
# Experimental: (§1) For induction of necroptosis, HT-29 cells were stimulated for 24 h at 37° C. with 100 ng/mL TNFα plus 1 μM Smac mimetics plus 25 μM zVAD as indicated (vehicle-treated cells served as control). For induction of ferroptosis, NIH and HT-1080 cells were each stimulated for 24 h at 37° C. with 50 μM erastin as indicated (vehicle-treated cells served as a control). For induction of apoptosis, Jurkat cells were stimulated for 4 h with 100 ng/mL monoclonal anti-Fas (clone 7C11; Immunotech). Anti-Fas-induced apoptosis of Jurkat cells was inhibited by further addition of 25 μM zVAD (vehicle-treated cells served as control).
# (§2) Phosphatidylserine exposure to the outer cell membrane of apoptotic cells or at the inner plasma membrane of necrotic cells and incorporation of 7-AAD into necrotic cells were quantified by fluorescence-activated cell sorting (FACS) analysis. The ApoAlert annexin V-FITC antibody and the 7-AAD antibody were purchased from BD Biosciences.
# HT1080 cells = assay: FACS (7AAD / annexin V) of erastin-treated HT1080 cells; assay type: cell-based, human; conditions: 50 μM erastin, 1 μM compound
# Experimental: as §1, §2
# [1] = system: freshly isolated murine renal tubules; assay: Synchronized necrosis of freshly isolated renal tubules (fatty-acid depletion / erastin); assay type: cell-based, mouse; conditions: in the presence of fatty acids
# Experimental: Six to 12 mice were used for each isolated tubule preparation, depending on the amount of material needed for particular experiments. For preparation of isolated tubules, mice were anesthetized with ketamine (100 mg/kg i.p.) and xylazine (10 mg/kg i.p.), and the kidneys were immediately removed. Type I collagenase was from Worthington Biochemical. Percoll was purchased from Amersham Biosciences. All other reagents and chemicals, including delipidated BSA, were of the highest grade available from Sigma-Aldrich. […] The cortices were then dissected and minced on an ice-cold tile and then resuspended in additional solution A for 8-10 min of digestion at 37° C., followed by enrichment of proximal tubules using centrifugation on self-forming Percoll gradients. For Nec-1 studies in renal tubules, renal cortices were dissected in ice-cold dissection solution (DS) [HBSS with 10 mmol/L glucose, 5 mmol/L glycine, 1 mmol/L alanine, 15 mmol/L Hepes (pH 7.4); osmolality, 325 mOsmol/L] and sliced into 1-mm pieces. The fragments were transferred to collagenase solution (DS with 0.1% (wt/vol) type 2 collagenase and 96 μg/mL soybean trypsin inhibitor) and digested for 30 min at 37° C. and 61×g. After digestion, the supernatant was sieved through two nylon sieves: first 250-μm pore size and then 100-μm pore size. […]
# [2] = Metabolic stability in mouse liver microsomes; assay type: in vitro ADME; conditions: for half-life at 0.5 μM: mouse, liver microsomes
# Experimental: Test compounds (0.5 μM) were incubated at 37° C. for up to 45 minutes in 50 mM of potassium phosphate buffer (pH 7.4) containing mouse liver microsomal protein (0.5 mg/mL) and an NADPH generating system (0.34 mg/mL β-nicotinamide adenine dinucleotide phosphate (NADP), 1.56 mg/mL glucose-6-phosphate, 1.2 units/mL glucose-6-phosphate dehydrogenase). At 0, 5, 15, 30, and 45 minute intervals, an aliquot was taken and quenched with acetonitrile (ACN) containing internal standard. No-cofactor controls at 45 minutes were prepared. Following completion of the experiment, the samples were analyzed by LC-MS/MS.
# The half-life (t1/2) was calculated using the following equation: t1/2=0.693/k Where, k is the elimination rate constant of test compounds obtained by fitting the data to the equation: C=initial×exp(−k×t) Intrinsic clearance (Clint) is calculated as liver clearance from the half-life using the following equation: […]
# 0.5 mg protein/mL incubation
# Ethoxycoumarin was used as a control.
# [3] = In vitro stability study in mouse plasma; assay type: in vitro ADME; conditions: for Percent Remaining: 37° C.
# Experimental: The assay was conducted by incubating 1 μM of test compounds with Mouse Plasma (Strain […]) for a series of incubation times (0, 15, 30, 60, 120 minutes) at various temperatures (wet ice, room temperature, or 37° C.) with 5% CO2 and shaking (130 rpm). At each time point, the samples were quenched with 200 μL of stop solution containing an internal standard and kept on ice. The samples were analysed by LC-MS/MS.
# [4] = system: C57BL/6 mice, kidney ischemia-reperfusion injury; assay: Kidney model of ischemia-reperfusion injury (IRI); assay type: in vivo
# Experimental: As an initial in vivo study, the effects of Fer-1 and SRS16-86 on serum creatinine, a marker of kidney damage, were evaluated in an ischemia reperfusion injury (IRI) model of kidney failure (FIG. 21).
# Organs were dissected as indicated in each experiment and infused with 4% (vol/vol) neutral-buffered formaldehyde, fixated for 48 h, dehydrated in a graded ethanol series and xylene, and finally embedded in paraffin. Stained sections were analyzed using an Axio Imager microscope (Zeiss). Kidney damage was quantified by two experienced pathologists in a double-blind manner on a scale ranging from 0 (unaffected tissue) to 10 (severe organ damage). The following parameters were chosen as indicative of morphological damage to the kidney after ischemia-reperfusion injury (IRI): brush border loss, red blood cell extravasation, tubule dilatation, tubule degeneration, tubule necrosis, and tubular cast formation. These parameters were evaluated on a scale of 0-10, which ranged from not present (0), mild (1-4), moderate (5 or 6), severe (7 or 8), to very severe (9 or 10). Each parameter was determined on at least four different animals.
# Induction of kidney IRI was performed via a midline abdominal incision and a bilateral renal pedicle clamping for either 40 min (severe IRI, or “lethal-to-WT” IRI) or 50 min (ultra-severe IRI) using microaneurysm clamps (Aesculab). Throughout the surgical procedure, the body temperature was maintained between 36° C. and 37° C. by continuous monitoring using a temperature-controlled self-regulated heating system (Fine Science Tools). After removal of the clamps, reperfusion of the kidneys was confirmed visually. The abdomen was closed in two layers using standard 6-0 sutures. Sham-operated mice underwent the identical surgical procedures, except that microaneurysm clamps were not applied. To maintain fluid balance, all of the mice were supplemented with 1 mL of prewarmed PBS administered intraperitoneally directly after surgery. All mice were killed 48 h after reperfusion for each experiment. […] All ischemia-reperfusion experiments were performed in a double-blinded manner.
smiles,measurement,setting,value
"CC(C)(C)OC(=O)c1ccc(NC23CC4CC(CC(C4)C2)C3)c(/N=C\c2cncnc2)c1 [SRS16-86, tert-butyl 4-(adamantylamino)-3-(pyrimidin-5-ylmethyleneamino)benzoate]",ferroptosis-inhibiting ability (FACS),NIH 3T3 cells,active compound
same,ferroptosis-inhibiting ability (FACS),HT1080 cells,active compound
same,tubular necrosis,[1],prevented
same,Elimination rate constant (k),"[2]; Mouse, Compound Conc = 0.5 μM",<0.0048
same,Intrinsic Clearance (CLint) (mL/min/g liver),"[2]; Mouse, Compound Conc = 0.5 μM",<0.5* mL/min/g liver
same,half-life at 0.5 μM,"[2]; pH 7.4, Mouse, Compound Conc = 0.5 μM, read-out: Half life (t½)",> 1.5 h
same,half-life at 0.5 μM,"[2]; pH 7.4, stated in the text of Example 15, read-out: T1/2 in mouse liver microsomes",> 2 h
same,Percent Remaining,[3]; 0 minutes,100.0%
same,Percent Remaining,[3]; 15 minutes,82.2%
same,Percent Remaining,[3]; 30 minutes,86.5%
same,Percent Remaining,[3]; 60 minutes,83.9%
same,Percent Remaining,[3]; 120 minutes,63.9%
same,half-life at 1 μM,"[3]; C57BL/4, mouse, plasma, read-out: T1/2 in mouse plasma",> 2 h
same,serum creatinine in IRI model of kidney failure,[4]; 2 mg/kg IP 30 minutes prior to induction of IRI,effective
same,functional acute renal failure and structural organ damage after severe IRI,"[4]; 40 min ischemia, 48 h after reperfusion, 2 mg/kg i.p.",protected from functional acute renal failure
same,"serum urea and serum creatinine in ultrasevere IRI, added to Nec-1+SfA","[4]; 50 min ischemia, Nec-1+SfA-treated mice, 2 mg/kg i.p.",reduced plasma levels of serum urea and serum creatinine
